Assay results as given in PubChem BioAssay AID246 (DTP/NCI, 2004).
Where “and” joins values, the source holds several entries; their conditions need not be identical. Identical values can stand only once. Toxic doses and inconclusive results are not listed.

Tested on: BDF1 mice, P1081 chloroleukemia ip, survival T/C
Experiment: NCI In Vivo Anticancer Drug Screen. Data for tumor model P1081 Chloroleukemia (intraperitoneal) in B6D2F1 (BDF1) mice
Settings: endpoint: mean survival time, higher = longer survival
Procedure: The antitumor activity of compounds was measured in mice bearing transplantable tumors. Survival or tumor size were measured and the results are expressed as the measurement made in the treated group (T) divided by the measurement made in the vehicle treated control group (C). The tumor model used in this assay is P1081 Chloroleukemia (intraperitoneal) in B6D2F1 (BDF1) mice

[1] = dose: 62.5 mg/kg/injection, schedule: Q01DX Z (ip), vehicle: carboxymethylcellulose (CMC)
[2] = dose: 125.0 mg/kg/injection, schedule: Q01DX Z (ip), vehicle: carboxymethylcellulose (CMC)
[3] = dose: 63.0 mg/kg/injection, schedule: Q01DX Z (ip), vehicle: carboxymethylcellulose (CMC)

## CC[C@]1(O)C[C@H]2CN(CCc3c([nH]c4ccccc34)[C@@](C(=O)OC)(c3cc4c(cc3OC)N(C=O)[C@H]3[C@@](O)(C(=O)OC)[C@H](OC(C)=O)[C@]5(CC)C=CCN6CC[C@]43[C@@H]65)C2)C1
dose: 0.06 mg/kg/injection, schedule: Q01DX Z (ip), vehicle: water
  T/C: 112 % of control
dose: 1.0 mg/kg/injection, schedule: Q01DX Z (ip), vehicle: water
  T/C: 118 % of control

## COS(C)(=O)=O
dose: 1.6 mg/kg/injection, schedule: Q01DX Z (ip), vehicle: water
  T/C: 94 % of control
dose: 3.1 mg/kg/injection, schedule: Q01DX Z (ip), vehicle: water
  T/C: 99 % of control
dose: 6.25 mg/kg/injection, schedule: Q01DX Z (ip), vehicle: water
  T/C: 120 % of control and 103 % of control
dose: 12.5 mg/kg/injection, schedule: Q01DX Z (ip), vehicle: water
  T/C: 109 % of control
dose: 25.0 mg/kg/injection, schedule: Q01DX010 (ip), vehicle: saline
  T/C: 95 % of control
dose: 25.0 mg/kg/injection, schedule: Q01DX Z (ip), vehicle: water
  T/C: 112 % of control and 98 % of control
dose: 50.0 mg/kg/injection, schedule: Q01DX010 (ip), vehicle: saline
  T/C: 115 % of control
dose: 50.0 mg/kg/injection, schedule: Q01DX Z (ip), vehicle: water
  T/C: 90 % of control
dose: 100.0 mg/kg/injection, schedule: Q01DX Z (ip), vehicle: water
  T/C: 91 % of control

## O=c1[nH]c(=O)n(C2CC(O)C(CO)O2)cc1I (centres undefined)
[1]
  T/C: 103 % of control
[2]
  T/C: 108 % of control
dose: 250.0 mg/kg/injection, schedule: Q01DX Z (ip), vehicle: carboxymethylcellulose (CMC)
  T/C: 118 % of control and 92 % of control
dose: 500.0 mg/kg/injection, schedule: Q01DX Z (ip), vehicle: carboxymethylcellulose (CMC)
  T/C: 114 % of control

## Nc1ncnc2c1ccn2C1OC(CO)C(O)C1O (centres undefined)
dose: 0.04 mg/kg/injection, schedule: Q01DX Z (ip), vehicle: carboxymethylcellulose (CMC)
  T/C: 98 % of control
dose: 0.08 mg/kg/injection, schedule: Q01DX Z (ip), vehicle: carboxymethylcellulose (CMC)
  T/C: 94 % of control
dose: 0.16 mg/kg/injection, schedule: Q01DX Z (ip), vehicle: carboxymethylcellulose (CMC)
  T/C: 101 % of control
dose: 0.31 mg/kg/injection, schedule: Q01DX Z (ip), vehicle: carboxymethylcellulose (CMC)
  T/C: 110 % of control and 112 % of control
dose: 0.63 mg/kg/injection, schedule: Q01DX Z (ip), vehicle: carboxymethylcellulose (CMC)
  T/C: 108 % of control
dose: 1.25 mg/kg/injection, schedule: Q01DX Z (ip), vehicle: carboxymethylcellulose (CMC)
  T/C: 88 % of control

## CCOC(=O)NP(=O)(N1CC1(C)C)N1CC1(C)C (centres undefined)
dose: 8.0 mg/kg/injection, schedule: Q01DX Z (ip), vehicle: carboxymethylcellulose (CMC)
  T/C: 109 % of control
dose: 16.0 mg/kg/injection, schedule: Q01DX Z (ip), vehicle: carboxymethylcellulose (CMC)
  T/C: 106 % of control and 99 % of control
[1]
  T/C: 87 % of control and 104 % of control
[3]
  T/C: 169 % of control

## CCn1cnc2c(=S)nc[nH]c21
dose: 7.75 mg/kg/injection, schedule: Q01DX Z (ip), vehicle: carboxymethylcellulose (CMC)
  T/C: 112 % of control
dose: 15.5 mg/kg/injection, schedule: Q01DX Z (ip), vehicle: carboxymethylcellulose (CMC)
  T/C: 101 % of control
dose: 15.6 mg/kg/injection, schedule: Q01DX010 (ip), vehicle: saline
  T/C: 110 % of control and 105 % of control
dose: 31.0 mg/kg/injection, schedule: Q01DX Z (ip), vehicle: carboxymethylcellulose (CMC)
  T/C: 105 % of control
dose: 31.3 mg/kg/injection, schedule: Q01DX010 (ip), vehicle: saline
  T/C: 100 % of control and 105 % of control
dose: 62.5 mg/kg/injection, schedule: Q01DX010 (ip), vehicle: saline
  T/C: 110 % of control and 105 % of control
[1]
  T/C: 110 % of control
[3]
  T/C: 98 % of control
dose: 125.0 mg/kg/injection, schedule: Q01DX010 (ip), vehicle: saline
  T/C: 115 % of control
[2]
  T/C: 86 % of control

## CS(=O)(=O)OCC(O)C(O)COS(C)(=O)=O (centres undefined)
dose: 94.0 mg/kg/injection, schedule: Q01DX Z (ip), vehicle: saline
  T/C: 86 % of control
dose: 188.0 mg/kg/injection, schedule: Q01DX Z (ip), vehicle: saline
  T/C: 107 % of control
dose: 375.0 mg/kg/injection, schedule: Q01DX Z (ip), vehicle: saline
  T/C: 95 % of control
dose: 750.0 mg/kg/injection, schedule: Q01DX Z (ip), vehicle: saline
  T/C: 122 % of control
dose: 1500.0 mg/kg/injection, schedule: Q01DX Z (ip), vehicle: saline
  T/C: 166 % of control
dose: 3000.0 mg/kg/injection, schedule: Q01DX Z (ip), vehicle: saline
  T/C: 173 % of control

## Cn1cc(NC(=O)c2cc(NC(=O)CN=C(N)N)cn2C)cc1C(=O)NCCC(=N)N
dose: 6.3 mg/kg/injection, schedule: Q01DX Z (ip), vehicle: saline
  T/C: 102 % of control
dose: 12.5 mg/kg/injection, schedule: Q01DX Z (ip), vehicle: saline
  T/C: 100 % of control
dose: 25.0 mg/kg/injection, schedule: Q01DX Z (ip), vehicle: saline
  T/C: 92 % of control
